Row | Compound | melting point
1 | CC[C@@]1(O)C(=O)OCc2c1cc1n(c2=O)Cc2c-1nc1ccc(Cl)c3c1c2C(NC(C)=O)CN3 (stereo partly shown) | 250 to 270 °C
2 | CC[C@@]1(O)C(=O)OCc2c1cc1n(c2=O)Cc2c-1nc1ccc(C)c3c1c2C(NC(C)=O)CN3 (stereo partly shown) | 225 to 235 °C
3 | CC[C@@]1(O)C(=O)OCc2c1cc1n(c2=O)Cc2c-1nc1cccc3c1c2C(NC(C)=O)CCC3 (stereo partly shown) | 203 to 206 °C (dec.)
4 | CC[C@@]1(O)C(=O)OCc2c1cc1n(c2=O)Cc2c-1nc1ccc(C)c3c1c2CCC3N1C(=O)c2ccccc2C1=O (stereo partly shown) | 285 to 290 °C (dec.)
5 | CC[C@@]1(O)C(=O)OCc2c1cc1n(c2=O)Cc2c-1nc1ccc(C)c3c1c2CCN3CCNC(C)=O | 155 to 165 °C (dec.)
6 | CC[C@@]1(O)C(=O)OCc2c1cc1n(c2=O)Cc2c-1nc1cccc3c1c2CC(S(=O)(=O)O)C3 (stereo partly shown) | 190 to 200 °C (dec.)
7 | CC[C@@]1(O)C(=O)OCc2c1cc1n(c2=O)Cc2c-1nc1ccc(C)c3c1c2CCN3CCN.Cl | 210 to 230 °C (dec.)

Reference: patent publication US6407115B1, “Hexa-cyclic compound” (Daiichi Pharmaceutical Co., Ltd., priority 1991, dated 2002)
